Measured values: patent publication US20190119251A1, “AMIDE-SUBSTITUTED ARYLTRIAZOLE DERIVATIVES AND USES THEREOF” (BAYER PHARMA AKTIENGESELLSCHAFT, priority 2016, published 2019)
pIC50: −log10 of the molar value.

Tests used:
human V2 receptor = molecular target: T1, human V2 receptor (Homo sapiens, UniProt P30518); assay: Cellular in vitro assay for determining vasopressin receptor activity (V2 cell line, CRE-luciferase); assay type: cell-based; details: CHO cell line transfected with the human V2 receptor; agonist [Arg8]-vasopressin at EC50 concentration; 3 hours incubation; read-out: IC50 hV2
T1 construct: expressed in transfected cells; host or cells: CHO K1 (Chinese hamster ovary) expressing firefly luciferase under a CRE-responsive promoter
T1 sequence (P30518 whole entry): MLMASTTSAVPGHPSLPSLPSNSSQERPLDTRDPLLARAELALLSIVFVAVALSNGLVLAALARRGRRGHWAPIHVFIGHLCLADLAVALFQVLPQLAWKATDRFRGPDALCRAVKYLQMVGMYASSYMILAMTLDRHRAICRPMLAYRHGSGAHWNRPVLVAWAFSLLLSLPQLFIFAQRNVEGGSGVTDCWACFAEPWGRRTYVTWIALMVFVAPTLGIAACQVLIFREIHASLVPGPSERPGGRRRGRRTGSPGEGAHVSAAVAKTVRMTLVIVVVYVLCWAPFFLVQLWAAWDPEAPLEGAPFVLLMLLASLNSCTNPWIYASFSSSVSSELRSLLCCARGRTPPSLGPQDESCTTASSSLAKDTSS
Description: (§1) B-1. Cellular In Vitro Assay for Determining Vasopressin Receptor Activity
(§2) The identification of agonists and antagonists of the V 1 a and V2 vasopressin receptors from humans, rats and dogs as well as the quantification of the activity of the compounds of the invention is carried out using recombinant cell lines. These cell lines originally derive from a hamster's ovary epithelial cell (Chinese Hamster Ovary, CHO K1, ATCC: American Type Culture Collection, Manassas, Va. 20108, USA). The test cell lines constitutively express the human, rat or dog
(§3) V1 a or V2 receptors. In case of the Gag-coupled V 1 a receptors, cells are also stably transfected with a modified form of the calcium-sensitive photoproteins aequorin (human and rat V1a) or obelin (dog V 1 a), which, after reconstitution with the cofactor coelenterazine, emit light when there are increases in free calcium concentrations [Rizzuto R, Simpson A W, Brini M, Pozzan T, Nature 358, 325-327 (1992); Illarionov B A, Bondar V S, Illarionova V A, Vysotski E S, Gene 153 (2), 273-274 (1995)]. The resulting vasopressin receptor cells react to stimulation of the recombinantly expressed V 1 a receptors by intracellular release of calcium ions, which can be quantified by the resulting photoprotein luminescence. The Gs-coupled V2 receptors are stably transfected into cell lines expressing the gene for firefly luciferase under control of a CRE-responsible promoter. Activation of V2 receptors induces the activation of the CRE-responsive promoter via cAMP increase, thereby inducing the expression of firefly luciferase. The light emitted by photoproteins of V1a cell lines as well as the light emitted by firefly luciferase of V2 cell lines corresponds to the activation or inhibition of the respective vasopressin receptor. The bioluminescence of the cell lines is detected using a suitable luminometer [Milligan G, Marshall F, Rees S, Trends in Pharmacological Sciences 17, 235-237 (1996)].
Vasopressin V2 Receptor Cell Lines:
On the day before the assay, the cells are plated out in culture medium (DMEM/F12, 2% FCS, 2 mM glutamine, 10 mM HEPES) in 384-well microtiter plates and kept in a cell incubator (96% humidity, 5% v/v CO2, 37° C.). On the day of the assay, test compounds in various concentrations and the agonist [Arg^8]-vasopressin at EC50 concentration are added together to the wells, and plates are incubated for 3 hours in a cell incubator. Upon addition of the cell lysis reagent Triton™ and the substrate luciferin, luminescence of firefly luciferase is measured in a luminometer.
(§4) Table 1A below lists individual IC50 values for the compounds of the invention (including racemic mixtures as well as separated enantiomers) that were obtained from cell lines transfected with the human V1a or V2 receptor: […]

human V1a receptor = molecular target: T2, human V1a receptor (Homo sapiens, UniProt P37288); assay: Cellular in vitro assay for determining vasopressin receptor activity (V1a cell line, aequorin luminescence); assay type: cell-based; details: for pIC50: CHO cell line transfected with the human V1a receptor, agonist [Arg8]-vasopressin at EC50 concentration, read-out: IC50 hV1a; for ratio IC50 hV2/hV1a: ratio of cellular IC50 values, human V2 over human V1a
T2 construct: expressed in transfected cells; host or cells: CHO K1 (Chinese hamster ovary), also stably transfected with modified aequorin
T2 sequence (P37288 whole entry): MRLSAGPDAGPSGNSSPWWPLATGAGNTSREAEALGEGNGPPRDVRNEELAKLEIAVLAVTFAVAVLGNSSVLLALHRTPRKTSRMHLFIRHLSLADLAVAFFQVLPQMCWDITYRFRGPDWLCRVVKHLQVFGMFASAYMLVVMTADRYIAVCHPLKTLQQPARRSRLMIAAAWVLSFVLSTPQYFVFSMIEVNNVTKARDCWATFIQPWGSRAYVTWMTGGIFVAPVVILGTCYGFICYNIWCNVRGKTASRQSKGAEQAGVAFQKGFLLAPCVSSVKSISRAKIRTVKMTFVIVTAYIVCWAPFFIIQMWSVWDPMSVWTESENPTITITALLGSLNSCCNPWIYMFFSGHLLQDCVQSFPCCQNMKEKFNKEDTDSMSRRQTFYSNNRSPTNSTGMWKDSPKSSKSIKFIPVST
Description: as §1, §2, §3
Vasopressin V1a Receptor Cell Lines:
On the day before the assay, the cells are plated out in culture medium (DMEM/F12, 2% FCS, 2 mM glutamine, 10 mM HEPES, 5 μg/ml coelenterazine) in 384-well microtiter plates and kept in a cell incubator (96% humidity, 5% v/v CO2, 37° C.). On the day of the assay, test compounds in various concentrations are placed for 10 minutes in the wells of the microtiter plate before the agonist [Arg^8]-vasopressin at EC50 concentration is added. The resulting light signal is measured immediately in a luminometer.
as §4

With NC(=O)c1nc(Cn2nc(-c3ccc(Cl)cc3)n(C[C@H](O)C(F)(F)F)c2=O)nn1-c1cccc(Cl)c1 [Example 33, 1-(3-Chlorophenyl)-3-({3-(4-chlorophenyl)-5-oxo-4-[(2S)-3,3,3-trifluoro-2-hydroxypropyl]-4,5-dihydro-1H-1,2,4-triazol-1-yl}methyl)-1H-1,2,4-triazole-5-carboxamide] the pIC50 (human V2 receptor) was 8.34, the pIC50 (human V1a receptor) was 7.62 and the “ratio IC50 hV2/hV1a” value (human V1a receptor) was 0.2.
For COc1ccccc1-n1nc(Cn2nc(-c3ccc(Cl)cc3)n(C[C@H](O)C(F)(F)F)c2=O)nc1C(N)=O [Example 34, 3-({3-(4-Chlorophenyl)-5-oxo-4-[(2S)-3,3,3-trifluoro-2-hydroxypropyl]-4,5-dihydro-1H-1,2,4-triazol-1-yl}methyl)-1-(2-methoxyphenyl)-1H-1,2,4-triazole-5-carboxamide], the pIC50 (human V2 receptor) was 8.12, the pIC50 (human V1a receptor) was 8.95 and the “ratio IC50 hV2/hV1a” value (human V1a receptor) was 6.9.
With NC(=O)c1nc(Cn2nc(-c3ccc(Cl)cc3)n(C[C@H](O)C(F)(F)F)c2=O)nn1-c1ccccc1Cl [Example 35, 1-(2-Chlorophenyl)-3-({3-(4-chlorophenyl)-5-oxo-4-[(2S)-3,3,3-trifluoro-2-hydroxypropyl]-4,5-dihydro-1H-1,2,4-triazol-1-yl}methyl)-1H-1,2,4-triazole-5-carboxamide] the pIC50 (human V2 receptor) was 8.07, the pIC50 (human V1a receptor) was 9.11 and the “ratio IC50 hV2/hV1a” value (human V1a receptor) was 11.1.
NC(=O)c1nc(Cn2nc(-c3ccc(Cl)cc3)n(C[C@@H](O)C(F)(F)F)c2=O)nn1-c1ccccc1Cl [Example 36, 1-(2-Chlorophenyl)-3-({3-(4-chlorophenyl)-5-oxo-4-[(2R)-3,3,3-trifluoro-2-hydroxypropyl]-4,5-dihydro-1H-1,2,4-triazol-1-yl}methyl)-1H-1,2,4-triazole-5-carboxamide] was tested, and the pIC50 (human V2 receptor) was 7.06, the pIC50 (human V1a receptor) was 8.42 and the “ratio IC50 hV2/hV1a” value (human V1a receptor) was 23.0.
With NC(=O)c1nc(Cn2nc(-c3ccc(Cl)cc3)n(CC(=O)C(F)(F)F)c2=O)nn1-c1ccccc1Cl [Example 37, 1-(2-Chlorophenyl)-3-{[3-(4-chlorophenyl)-5-oxo-4-(3,3,3-trifluoro-2-oxopropyl)-4,5-dihydro-1H-1,2,4-triazol-1-yl]methyll-1H-1,2,4-triazole-5-carboxamide (ketone form) or 1-(2-Chlorophenyl)-3-{[3-(4-Chlorophenyl)-5-oxo-4-(3,3,3-trifluoro-2,2-dihydroxypropyl)-4,5-dihydro-1H-1,2,4-triazol-1-yl]methyl}-1H-1,2,4-triazole-5-carboxamide (hydrate form)] the pIC50 (human V2 receptor) was 7.87, the pIC50 (human V1a receptor) was 8.86 and the “ratio IC50 hV2/hV1a” value (human V1a receptor) was 9.9.
